In the OligoGym collection:
Where “and” joins values, the source holds several entries; their conditions need not be identical. Identical values can stand only once. After the bases stand the sugars from the 5' end (letter, count) and the backbone: PS all phosphorothioate, else s phosphorothioate and o phosphodiester by linkage. Methylation of C is not given here. e = 2'-O-(2-methoxyethyl) (MOE); k = constrained ethyl (cEt); d = 2'-deoxy (DNA)

Target: APOL1
Conditions: ASO

Sequence	target mRNA inhibition (A431, 0.0625 µM)	target mRNA inhibition (A431, 0.25 µM)	target mRNA inhibition (A431, 1 µM)	target mRNA inhibition (A431, 2 µM) [%]	target mRNA inhibition (A431, 0.0156 µM) [%]
GAAAATATCAGAGTGT (sugars k4 d9 k3, PS)	29%	68%	90%		
GAACGCAATGCTGACT (sugars kkddddkekekddddd, PS)				78	
GAAGATTGGCTCTGGC (sugars kdddddkekekddddd, PS)				44	
GAAGATTGGCTCTGGC (sugars kkdddddkekeddddd, PS)				70	
GAAGATTGGCTCTGGC (sugars kkddddkdkdkddddd, PS)				79	
GAAGCTTTAAACTCAG (sugars k4 d9 k3, PS)	41%	65%	82%		
GAAGCTTTAAACTCAG (sugars kkddddekekeddddd, PS)				62	
GAAGCTTTAAACTCAG (sugars kkkddddkekekdddd, PS)				47	
GAATTATGGAATTGCA (sugars k2 d4 e3 k2 d5, PS)				94	
GAATTATGGAATTGCA (sugars kkdddddkekeddddd, PS)	38%	75%	86%	92	17
GACTTGTTTTATGGAG (sugars k4 d9 k3, PS)	75%	88%	92%		
GAGTATTGTTTTTGTG (sugars k2 d4 e3 k2 d5, PS)	72%	91%	96%	97	38
GAGTATTGTTTTTGTG (sugars kdddddkekekddddd, PS)				90	
GAGTATTGTTTTTGTG (sugars kddddkekekeddddd, PS)				94	
GATGGGTACTTCTGTT (sugars k4 d9 k3, PS)	63%	82%	90%		
GATTTTTCTTTGACCG (sugars k4 d9 k3, PS)	80% and 81%	95% and 94%	99% and 98%		
GCATTCAGAATTTCCA (sugars k2 d4 e3 k2 d5, PS)	72%	91%	97%	98	39
GCGATTGTCTTGTTTT (sugars k4 d9 k3, PS)	64% and 78%	87% and 89%	93%		

Sequence	target mRNA inhibition (A431, 0.0625 µM)	target mRNA inhibition (A431, 0.25 µM)	target mRNA inhibition (A431, 1 µM)	target mRNA inhibition (A431, 2 µM) [%]	target mRNA inhibition (A431, 0.0156 µM) [%]
GCTAATTTTCTGACTG (sugars kddddkekekeddddd, PS)				88	
GCTAATTTTCTGACTG (sugars kkkddddkekeddddd, PS)	42%	70%	87%	93	10
GCTTTAAACTCAGGTG (sugars kddddkekekeddddd, PS)				67	
GCTTTAAACTCAGGTG (sugars kkddddkdkdkddddd, PS)	63%	83%	94%	96	25
GGAATTATGGAATTGC (sugars k2 d4 e3 k2 d5, PS)	38%	84%	96%	99	8
GGAATTATGGAATTGC (sugars kdddddkekekddddd, PS)				92	
GGAATTATGGAATTGC (sugars kddddkekekeddddd, PS)				88	
GGAATTATGGAATTGC (sugars kkdddddkekeddddd, PS)				40	
GGAATTATGGAATTGC (sugars kkddddkekekkdddd, PS)				74	
GGACATTGAACCTGGG (sugars k4 d9 k3, PS)	50%	78%	86%		
GGCCGTGTCACCCTAA (sugars k4 d9 k3, PS)	51%	45%	52%		
GGGAATTATGGAATTG (sugars kkkddddkekeddddd, PS)				63	
GGGTCAAAAGCGATGG (sugars k4 d9 k3, PS)	50%	79%	88%		
GGTTATGAAATTATTG (sugars k3 d4 k3 e1 d5, PS)				91	
GTAAGTATTGCCAGCT (sugars kkddddekekeddddd, PS)				69	
GTAAGTATTGCCAGCT (sugars kkddddkekekddddd, PS)				53	
GTAAGTGCTTTGATTC (sugars k4 d9 k3, PS)	64%	83%	92%		
GTATTGCCAGCTAAGG (sugars k4 d9 k3, PS)	56%	85%	94%		
